From paper PMC8508710, “Biochemical Characterization of 13-Lipoxygenases of Arabidopsis thaliana” (International Journal of Molecular Sciences, 2021)

Experiments:
LOX2 = target: T1, LOX2 (Arabidopsis thaliana, UniProt P38418); experiment: LOX2 activity, oxygen electrode (polarography); assay type: biochemical; set-up: made in house; host or cells: E. coli Nico21(DE3), pET15b; conditions: for Relative Activity (%) LOX2: 1 mM metal salt, LeA 30 µM in 20 mM HEPES pH 8.0, oxygen consumption vs control without metal; for activity at 280 µM: enzyme incubated with 280 µM chemical (1/10 vol of 2.8 mM), injected into 30 µM LeA, 50 mM Tris-HCl pH 7.2, vs solvent control, read-out: Polarography Relative Activity (%) LOX2; for Increase of LOX2 activity in comparison to control: 1 mM cation, LeA 30 µM, pH 8.0
T1 sequence (P38418 71-896): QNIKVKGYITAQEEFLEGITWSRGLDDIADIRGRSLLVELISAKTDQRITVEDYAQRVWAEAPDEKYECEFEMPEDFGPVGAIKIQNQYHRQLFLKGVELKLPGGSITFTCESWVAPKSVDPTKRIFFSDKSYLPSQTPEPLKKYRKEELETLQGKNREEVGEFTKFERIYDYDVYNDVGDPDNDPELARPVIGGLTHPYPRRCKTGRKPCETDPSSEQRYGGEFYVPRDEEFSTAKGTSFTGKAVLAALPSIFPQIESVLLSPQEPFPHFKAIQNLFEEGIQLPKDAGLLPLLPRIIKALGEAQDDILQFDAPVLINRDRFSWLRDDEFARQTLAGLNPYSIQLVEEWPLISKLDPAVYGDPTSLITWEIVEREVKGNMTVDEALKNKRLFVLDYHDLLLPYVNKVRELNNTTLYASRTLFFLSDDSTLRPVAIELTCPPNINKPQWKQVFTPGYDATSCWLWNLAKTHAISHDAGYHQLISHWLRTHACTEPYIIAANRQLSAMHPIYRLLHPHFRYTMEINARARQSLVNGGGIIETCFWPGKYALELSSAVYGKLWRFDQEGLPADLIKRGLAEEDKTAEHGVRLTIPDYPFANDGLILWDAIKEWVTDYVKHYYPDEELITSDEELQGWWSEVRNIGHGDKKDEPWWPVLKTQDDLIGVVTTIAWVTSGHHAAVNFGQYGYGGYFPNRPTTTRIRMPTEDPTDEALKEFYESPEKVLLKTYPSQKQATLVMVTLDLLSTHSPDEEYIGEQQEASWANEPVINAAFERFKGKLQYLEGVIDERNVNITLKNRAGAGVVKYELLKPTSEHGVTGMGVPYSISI

LOX6 [1] = target: T2, LOX6 (Arabidopsis thaliana, UniProt Q9CAG3); experiment: LOX6 activity, oxygen electrode (polarography); assay type: biochemical; set-up: made in house; host or cells: E. coli Nico21(DE3), pEXP5-NT/TOPO; conditions: for Relative Activity (%) LOX6: 1 mM metal salt, LeA 30 µM in 20 mM HEPES pH 8.0, oxygen consumption vs control without metal; for activity at 280 µM: enzyme incubated with 280 µM chemical (1/10 vol of 2.8 mM), injected into 30 µM LeA, 50 mM Tris-HCl pH 7.2, vs solvent control, read-out: Polarography Relative Activity (%) LOX6; for Increase of LOX6-catalyzed oxygen consumption: 1 mM cation, LeA 30 µM, pH 8.0
T2 sequence (Q9CAG3 41-917): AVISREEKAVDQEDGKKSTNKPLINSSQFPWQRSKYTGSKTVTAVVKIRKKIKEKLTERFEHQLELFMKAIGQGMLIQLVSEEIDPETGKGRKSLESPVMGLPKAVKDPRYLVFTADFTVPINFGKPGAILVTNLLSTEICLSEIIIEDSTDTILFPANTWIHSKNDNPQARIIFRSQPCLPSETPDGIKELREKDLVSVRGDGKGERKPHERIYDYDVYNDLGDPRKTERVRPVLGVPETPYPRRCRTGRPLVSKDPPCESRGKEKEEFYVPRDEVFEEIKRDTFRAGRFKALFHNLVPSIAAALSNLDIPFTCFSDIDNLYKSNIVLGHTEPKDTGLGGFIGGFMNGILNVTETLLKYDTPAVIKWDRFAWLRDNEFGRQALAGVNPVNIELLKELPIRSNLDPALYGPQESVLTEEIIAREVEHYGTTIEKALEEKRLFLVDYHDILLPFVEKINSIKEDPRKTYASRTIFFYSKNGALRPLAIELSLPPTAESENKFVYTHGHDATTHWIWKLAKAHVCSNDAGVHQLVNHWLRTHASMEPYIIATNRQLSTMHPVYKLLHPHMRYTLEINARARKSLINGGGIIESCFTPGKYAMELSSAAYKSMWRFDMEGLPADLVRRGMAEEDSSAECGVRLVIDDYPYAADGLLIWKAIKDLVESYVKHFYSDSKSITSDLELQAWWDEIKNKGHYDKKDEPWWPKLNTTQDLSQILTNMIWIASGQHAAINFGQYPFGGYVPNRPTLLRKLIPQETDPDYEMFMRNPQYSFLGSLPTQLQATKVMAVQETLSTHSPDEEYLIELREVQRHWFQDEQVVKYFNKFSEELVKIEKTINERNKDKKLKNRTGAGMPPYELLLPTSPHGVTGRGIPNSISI

LOX3 = target: T3, LOX3 (Arabidopsis thaliana, UniProt Q9LNR3); experiment: LOX3 activity, spectrophotometric (conjugated diene formation at 234 nm); conditions: for Relative Activity (%) LOX3: E. coli lysate in 50 mM TRIS pH 8.0 diluted 1:10, 50 mM HEPES pH 8.0 + 1 mM metal salt, LeA, 234 nm; for Mode of inhibition: Michaelis–Menten, Lineweaver–Burk and Dixon plots; for Photometry Relative activity (%) LOX3: enzyme 0.225 µg/µL incubated 10 min 30 °C with 280 µM chemical, 4.8 µM LeA, 50 mM Tris-HCl pH 7.2, vs solvent control
T3 sequence (Q9LNR3 71-919): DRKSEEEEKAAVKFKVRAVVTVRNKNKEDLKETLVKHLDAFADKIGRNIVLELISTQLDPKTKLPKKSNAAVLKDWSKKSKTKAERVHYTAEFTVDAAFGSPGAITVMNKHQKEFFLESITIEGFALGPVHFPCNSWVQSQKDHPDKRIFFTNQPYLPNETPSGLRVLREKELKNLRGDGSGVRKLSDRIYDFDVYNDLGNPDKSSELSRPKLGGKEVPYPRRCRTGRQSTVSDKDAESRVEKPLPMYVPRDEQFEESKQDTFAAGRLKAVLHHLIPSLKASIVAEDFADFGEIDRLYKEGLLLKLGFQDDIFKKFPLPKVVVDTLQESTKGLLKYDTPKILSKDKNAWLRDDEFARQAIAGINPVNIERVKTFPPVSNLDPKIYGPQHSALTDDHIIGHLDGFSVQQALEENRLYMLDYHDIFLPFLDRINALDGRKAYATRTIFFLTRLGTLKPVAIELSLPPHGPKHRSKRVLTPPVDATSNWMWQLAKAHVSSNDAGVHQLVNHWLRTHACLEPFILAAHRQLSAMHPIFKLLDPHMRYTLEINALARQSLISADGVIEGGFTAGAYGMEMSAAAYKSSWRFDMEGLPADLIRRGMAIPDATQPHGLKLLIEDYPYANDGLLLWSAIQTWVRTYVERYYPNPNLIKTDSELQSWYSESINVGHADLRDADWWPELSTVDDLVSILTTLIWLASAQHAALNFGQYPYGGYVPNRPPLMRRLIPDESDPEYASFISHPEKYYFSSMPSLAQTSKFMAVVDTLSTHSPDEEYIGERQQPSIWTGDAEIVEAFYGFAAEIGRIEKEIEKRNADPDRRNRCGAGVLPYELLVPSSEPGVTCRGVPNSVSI

LOX6 [2] = target: T2, LOX6; experiment: LOX6 activity, spectrophotometric (conjugated diene formation at 234 nm); conditions: for Relative Activity (%) LOX6: E. coli lysate in 50 mM TRIS pH 8.0 diluted 1:10, 50 mM HEPES pH 8.0 + 1 mM metal salt, LeA, 234 nm; for Photometry Relative activity (%) LOX6: enzyme 0.225 µg/µL incubated 10 min 30 °C with 280 µM chemical, 4.8 µM LeA, 50 mM Tris-HCl pH 7.2, vs solvent control

| Relative Activity (%) LOX2 (LOX2) [%] | Relative Activity (%) LOX6 (LOX6 [1]) | Relative Activity (%) LOX3 (LOX3) [%] | Relative Activity (%) LOX6 (LOX6 [2]) [%] | SMILES | activity at 280 µM (LOX2) [%] | activity at 280 µM (LOX6 [1]) [%] | Photometry Relative activity (%) LOX6 (LOX6 [2]) [%] | other results |
| --- | --- | --- | --- | --- | --- | --- | --- | --- |
| 690 ± 60 | 121 ± 15% | 104±2 | 107±11 | [Ca+2].[Cl-].[Cl-] [CaCl2] |  |  |  | Increase of LOX2 activity in comparison to control (LOX2): 590%; Increase of LOX6-catalyzed oxygen consumption (LOX6 [1]): 21% |
| 170 ± 18 | 142 ± 15% | 108±4 | 123±10 | [Cl-].[Cl-].[Mg+2] [MgCl2] |  |  |  | Increase of LOX2 activity in comparison to control (LOX2): 70%; Increase of LOX6-catalyzed oxygen consumption (LOX6 [1]): 42% |

Second part, the molecule before the results:

| SMILES | Relative Activity (%) LOX2 (LOX2) [%] | Relative Activity (%) LOX6 (LOX6 [1]) | Relative Activity (%) LOX3 (LOX3) [%] | Relative Activity (%) LOX6 (LOX6 [2]) [%] | activity at 280 µM (LOX2) [%] | activity at 280 µM (LOX6 [1]) [%] | Photometry Relative activity (%) LOX6 (LOX6 [2]) [%] | other results |
| --- | --- | --- | --- | --- | --- | --- | --- | --- |
| O=S(=O)([O-])[O-].[Cd+2] [CdSO4] | 220 ± 18 | no activity | 63±3 | 40±10 |  |  |  |  |
| CCC=CCC1C(=O)C=CC1CCCCCCCC(=O)O (stereo not drawn) [12-OPDA, cis-(+)-12-oxophytodienoic acid] |  |  |  |  | 64 ± 4 | 50 ± 10 | 59 ± 10 | IC50 (LOX3): 130 ± 31 µM; Ki (LOX3): 13 µM; Mode of inhibition (LOX3): non-competitive or mixed; Photometry Relative activity (%) LOX3 (LOX3): 35 ± 5%; IC50 (LOX6 [2]): 280 to 338 µM; Mode of inhibition (LOX6 [2]; 226 µM): non-competitive |
| O=C(O)c1ccccc1O [SA, salicylic acid] |  |  |  |  | 96 ± 7 | 103 ± 5 |  |  |
| CC/C=C\CC1C(=O)CCC1CC(=O)OC (stereo not drawn) [MJ, methyl jasmonate] |  |  |  |  | 87 ± 10 | 94 ± 6 | 86 ± 6 | Ki (LOX3): 295 µM; Mode of inhibition (LOX3): non-competitive |
| O=C(O)/C=C/CCCCCCCCC(=O)O [TA, traumatic acid] |  |  |  |  | 95 ± 8 | 101 ± 12 | 100 ± 9 | Photometry Relative activity (%) LOX3 (LOX3): 103 ± 4% |
